According to patent US11261193B2, “Morphic forms of G1T38 and methods of manufacture thereof” (G1 Therapeutics, Inc., priority 2017, dated 2022):
≈ marks a conversion by molar mass, not a printed value. Entries after “also recorded” stand apart in the source; their conditions may differ. Read-outs that look alike come from different tables or passages of the source. Values belong to the compound of their own block, whether it stands above or below them.

Experiments:
[1] = Phase 1a toxicity trial in 75 women; type: in vivo, human
[2] = test system: CDK4/6-dependent tumorigenic cell lines including breast, melanoma, leukemia, and lymphoma cells; details: variety of CDK4/6-dependent tumorigenic cell lines; cited from earlier work
RB phosphorylation = details: in vitro and in vivo; cited from earlier work
[3] = Solubility estimate by aliquot addition with visual observation; type: physicochemical; details: thermodynamic from solid
Experimental: Solubility estimates of impure Form B were attempted in various predominantly HCl acidic aqueous acetone solvent mixtures using an aliquot addition method that involved visual observation. Aliquots of various solvents or diluent/organic solvent mixtures were added to measured amounts of impure Form B with agitation (typically sonication) at ambient temperature until complete dissolution was achieved, as judged by visual observation. Solubilities were calculated based on the total solvent used to give a solution; actual solubilities may be greater because of the volume of solvent portions utilized or a slow rate of dissolution. […] If dissolution occurred at the first aliquot, the value was reported as “>”. Due to the haziness of the obtained samples, effective solubility estimates were difficult to discern.

[4] = Dynamic vapor sorption (moisture sorption) experiment; type: physicochemical; details: for XRPD (post DVS): form by XRPD after moisture sorption, sample dried at 60° C. and 0% RH; for % wt change at 60% RH: moisture adsorbed at 60% RH; for % wt change at 90% RH: moisture adsorbed at 90% RH
[5] = Stability study under thermal stress (oven at 60° C. for 7 days); type: physicochemical; details: for XRPD pattern / stability after thermal stress: 60° C. for 7 days
Experimental: Forms A, B, and D were stored in an oven maintained at 60° C. for 7 days.

[6] = Twelve-month stability study at 25° C./60% RH; type: physicochemical; details: for Appearance / HPLC Purity / Moisture (%) / XRPD: 25° C./60% RH
Experimental: (§1) Form B was stored at 25° C./60% RH for twelve months and at 40° C./75% RH for six months.

[7] = Six-month stability study at 40° C./75% RH; type: physicochemical
Experimental: as §1

[8] = TG-IR experiment monitoring potential release of hydrogen chloride; type: physicochemical; details: heated at 20° C./minute to approximately 140° C.; listed as pure Form B
Experimental: Thermogravimetric infrared (TG-IR) analysis was performed on a TA Instruments Q5000 IR thermogravimetric (TG) analyzer interfaced to a Magna-IR 560® Fourier transform infrared (FT-IR) spectrophotometer (Thermo Nicolet) equipped with an Ever-Glo mid/far IR source, a potassium bromide (KBr) beamsplitter, and a mercury cadmium telluride (MCT-A) detector. The FT-IR wavelength verification was performed using polystyrene, and the TG calibration standards were nickel and Alumel™. The sample was placed in a platinum sample pan and the pan was inserted into the TG furnace. The TG instrument was started first, immediately followed by the FT-IR instrument. The TG instrument was operated under a flow of helium at 90 and 10 cc/minute for the purge and balance, respectively. The furnace was heated under helium at a rate of 20° C./minute to a final temperature of approximately 140° C. IR spectra were collected approximately every 32 seconds for approximately 7.5 minutes. Each IR spectrum represents 32 co-added scans collected at a spectral resolution of 4 cm-1. Volatiles were identified from a search of the High Resolution Nicolet Vapor Phase spectral library. […]

Compound: CC(C)N1CCN(c2ccc(Nc3ncc4cc5n(c4n3)C3(CCCCC3)CNC5=O)nc2)CC1 [Form G1T38, 2′-((5-(4-isopropylpiperazin-1-yl)pyridin-2-yl)amino)-7′,8′-dihydro-6′H-spiro[cyclohexane-1,9′-pyrazino[1′,2′:1,5]pyrrolo[2,3-d]pyrimidin]-6′-one]
tolerability [1]: well tolerated with no significant adverse events
inhibition of cell proliferation [2]: induces inhibition of cell proliferation
inhibition of RB phosphorylation (RB phosphorylation): inhibits RB phosphorylation

solubility ([3]; aqueous buffer, 2.0M HCl, ambient, read-out: Solubility): 4000 µg/mL (≈ 8.43 mM)
solubility ([3]; aqueous buffer, 5.0M HCl, ambient, read-out: Solubility): 3000 µg/mL (≈ 6.32 mM)
solubility ([3]; aqueous buffer, 5.0M HCl:water 1:2, ambient, read-out: Solubility): 7000 µg/mL (≈ 14.7 mM)
solubility ([3]; aqueous with cosolvent or surfactant or cyclodextrin, 1M HCl:acetone 50:50, ambient, read-out: Solubility): 4000 µg/mL (≈ 8.43 mM)
solubility ([3]; aqueous with cosolvent or surfactant or cyclodextrin, 1M HCl:acetone 60:40, ambient, read-out: Solubility): 4000 µg/mL (≈ 8.43 mM)
solubility ([3]; aqueous with cosolvent or surfactant or cyclodextrin, 1M HCl:acetone 67:33, ambient, read-out: Solubility): 6000 µg/mL (≈ 12.6 mM)
solubility ([3]; aqueous with cosolvent or surfactant or cyclodextrin, 1.0M HCl:acetone 75:25, ambient, read-out: Solubility): 7000 µg/mL (≈ 14.7 mM)
solubility ([3]; aqueous with cosolvent or surfactant or cyclodextrin, predominantly HCl acidic aqueous acetone solvent mixtures, ambient temperature, read-out: solubility in the tested solvent mixtures): 3000 to 7000 µg/mL (≈ 6.32 to 14.7 mM)
solubility ([3]; organic solvent or mixture, 0.1M HCl:acetone 20:80, ambient, read-out: Solubility): < 1000 µg/mL
solubility ([3]; organic solvent or mixture, 0.5M HCl:acetone 10:90, ambient, read-out: Solubility): < 1000 µg/mL
solubility ([3]; organic solvent or mixture, 0.5M HCl:acetone 20:80, ambient, read-out: Solubility): < 1000 µg/mL
solubility ([3]; organic solvent or mixture, 1M HCl:acetone 5:95, ambient, read-out: Solubility): < 1000 µg/mL
solubility ([3]; organic solvent or mixture, 1M HCl:acetone 10:90, ambient, read-out: Solubility): < 1000 µg/mL
solubility ([3]; organic solvent or mixture, 1M HCl:acetone 20:80, ambient, read-out: Solubility): < 1000 µg/mL
solubility ([3]; organic solvent or mixture, 1M HCl:acetone 33:67, ambient, read-out: Solubility): 2000 µg/mL (≈ 4.21 mM)
solubility ([3]; organic solvent or mixture, Water:acetone 1:2, ambient, read-out: Solubility): 3000 µg/mL (≈ 6.32 mM)
solubility ([3]; Water, ambient, read-out: Solubility): < 7000 µg/mL
solubility ([3]; water:acetone 3:1, aqueous with cosolvent or surfactant or cyclodextrin, Water:cetone 3:1, ambient, read-out: Solubility): < 3000 µg/mL
Compound: CC(C)N1CCN(c2ccc(Nc3ncc4cc5n(c4n3)C3(CCCCC3)CNC5=O)nc2)CC1 [Impure Form B]

stability in the moisture sorption experiment [4]: stable
% wt change at 60% RH [4]: 5.8 wt %
% wt change at 90% RH [4]: 5.9 wt %
time stable in long-term stability study ([6]; 25° C. and 60% relative humidity): at least 1 year
Appearance ([6]; 0 M): Yellow
HPLC Purity ([6]; 0 M): 99.5%
Moisture (%) ([6]; 0 M): 4.9%
XRPD ([6]; 0 M): Form B
Appearance ([6]; 3 M): Yellow solid
HPLC Purity ([6]; 3 M): 99.5%
Moisture (%) ([6]; 3 M): 4.07%
Appearance ([6]; 6 M): Yellow
HPLC Purity ([6]; 6 M): 99.5%
Moisture (%) ([6]; 6 M): 7.53%
Appearance ([6]; 9 M): Yellow solid
HPLC Purity ([6]; 9 M): 99.6%
Moisture (%) ([6]; 9 M): 7.29%
Appearance ([6]; 12 M): Yellow
HPLC Purity ([6]; 12 M): 99.5%
Moisture (%) ([6]; 12 M): 7.48%
Appearance ([7]; 0 M): Yellow solid
HPLC Purity ([7]; 0 M): 99.5%
Moisture (%) ([7]; 0 M): 4.9%
XRPD ([7]; 0 M): Form B
Appearance ([7]; 1 M): Yellow solid
HPLC Purity ([7]; 1 M): 99.5%
Moisture (%) ([7]; 1 M): 2.75%
Appearance ([7]; 3 M): Yellow solid
HPLC Purity ([7]; 3 M): 99.5%
Moisture (%) ([7]; 3 M): 7.47%
XRPD ([7]; 3 M): Form B
Appearance ([7]; 6 M): Yellow solid
HPLC Purity ([7]; 6 M): 99.5%
Moisture (%) ([7]; 6 M): 7.53%
Compound: CC(C)N1CCN(c2ccc(Nc3ncc4cc5n(c4n3)C3(CCCCC3)CNC5=O)nc2)CC1 [Form B]
XRPD (post DVS) [4]: remained in Form B; also recorded: remained unchanged as Form B
XRPD pattern / stability after thermal stress [5]: stable; also recorded: No change; also recorded: remained unchanged
XRPD ([6]; 12 M): conformed to the reference spectrum; also recorded: Form B
XRPD ([7]; 6 M): conformed to the reference spectrum; also recorded: Form B
volatiles released during TG-IR [8]: only water, and no hydrogen chloride, was released

stability in the moisture sorption experiment [4]: unstable; also recorded: not stable
XRPD (post DVS) [4]: Form K
% wt change at 60% RH [4]: 4.4 wt %
XRPD pattern / stability after thermal stress [5]: No change
Compound: CC(C)N1CCN(c2ccc(Nc3ncc4cc5n(c4n3)C3(CCCCC3)CNC5=O)nc2)CC1 [Form D]

stability in the moisture sorption experiment [4]: unstable; also recorded: not stable
XRPD (post DVS) [4]: Form K
% wt change at 60% RH [4]: 14.9 wt %
% wt change at 90% RH [4]: 15.8 wt %
Compound: CC(C)N1CCN(c2ccc(Nc3ncc4cc5n(c4n3)C3(CCCCC3)CNC5=O)nc2)CC1 [Form A]
XRPD pattern / stability after thermal stress [5]: A new pattern; also recorded: converted to a new Form
XRPD after equilibrium at room temperature ([5]; three further days at room temperature after 60° C. for 7 days): converted back to Form A; also recorded: changed back to Form A

XRPD pattern / stability after thermal stress [5]: remained unchanged
Compound: CC(C)N1CCN(c2ccc(Nc3ncc4cc5n(c4n3)C3(CCCCC3)CNC5=O)nc2)CC1 [Form C]
